Source: ChEMBL document CHEMBL1201862, “PubChem BioAssay data set” (2004)
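Cells were grown in 96-well plates and exposed to each compound for 48 hours at five concentrations; endpoints were interpolated linearly between bracketing concentrations, or set to the highest concentration if not reached. Here, GI50 denotes the concentration required for 50% inhibition of growth.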 Calls of active or inactive are those of the source. Cut-off read from the data, not from the text of the source: active = GI50 up to about 1.1 µM and inactive = higher.

Assays:
Test in all cases: NCI tumour cell line growth inhibition, 48 h
[1] = test system: SK-MEL-2
[2] = test system: NCI-H226
[3] = test system: OVCAR-3
[4] = test system: HOP-62
[5] = test system: DU-145
[6] = test system: NCI/ADR-RES
[7] = test system: HCC 2998
[8] = test system: SW-620
[9] = test system: PC-3
[10] = test system: M14
[11] = test system: EKVX
[12] = test system: T47D
[13] = test system: MDA-N
[14] = test system: NCI-H460
[15] = test system: OVCAR-8
[16] = test system: NCI-H23
[17] = test system: SR
[18] = test system: A498
[19] = test system: SN12C
[20] = test system: Hs-578T

Measured: GI50

CCOC(=O)c1cc2cc(Cc3ccc4[nH]c(C(=O)OCC)cc4c3)ccc2[nH]1
inactive: [1] 26.7 µM | [2] 18.6 µM | [3] 73.6 µM | [4] 5.14 µM | [5] 31.3 µM | [6] 13.4 µM | [7] 91.6 µM | [8] 63.5 µM | [9] 34.3 µM | [10] > 100 µM | [11] 21.5 µM | [12] 32.4 µM | [13] 84.1 µM | [14] 24.1 µM | [15] 5.94 µM | [16] 14.7 µM | [17] 41.3 µM | [18] 17.3 µM | [19] 23.7 µM | [20] 12.6 µM

O=C1CNNC(CSc2nc3ccc(I)cc3c(=O)n2Cc2ccccc2)=N1
inactive: [1] 16.4 µM | [2] 18.1 µM | [3] 18.6 µM | [4] 32.3 µM | [5] 22.2 µM | [6] 26.8 µM | [7] 27 µM | [8] 42.4 µM | [9] 24.5 µM | [10] 36.1 µM | [11] 23.6 µM | [12] 15.5 µM | [13] 27.5 µM | [14] 30.9 µM | [15] 26.5 µM | [16] 31.6 µM | [17] 17.9 µM | [18] 27.8 µM | [19] 17.1 µM | [20] 32.9 µM

S=C1N=C2C(=N1)n1c3c(c4ccccc41)CCCC23 (stereo not given)
inactive: [1] > 100 µM | [2] 34.9 µM | [3] 52.4 µM | [4] 46 µM | [5] > 100 µM | [6] 62.4 µM | [7] > 100 µM | [8] 32.4 µM | [9] 48.5 µM | [10] > 100 µM | [11] > 100 µM | [12] 26 µM | [13] 63.8 µM | [14] 38.6 µM | [15] 32.1 µM | [16] 48.3 µM | [17] 72.4 µM | [18] > 100 µM | [19] 29.4 µM | [20] 44.1 µM
